Source: article PMC5267519, “Evaluation of a Novel Renewable Hepatic Cell Model for Prediction of Clinical CYP3A4 Induction Using a Correlation-Based Relative Induction Score Approach” (Drug Metabolism and Disposition, 2017)
Where “and” joins values, the source holds several entries; their conditions need not be identical. Equal entries are not always repeated. Where two headings read alike, the source gives them in different places.

Tests used:
[1] = test system: CYP3A4; conditions: for RIS Based on Enzyme Activity: RIS = (Emax × Cmax,ub)/(EC50 + Cmax,ub); for RIS values based on enzyme activity (range stated for group of compounds): range over named compounds and three lots
[2] = test system: CYP3A4 mRNA; assay: Concentration-dependent CYP3A4 mRNA induction in HepatoCells; conditions: for CYP3A4 mRNA expression induction response (in words): three lots of HepatoCells, eight concentrations; for Emax / EC50: CYP3A4 mRNA fold increase, NI = no induction observed at tested concentration; for Emax: 3 consecutive days treatment, quinidine: only observed maximum fold induction; for RIS Based on mRNA: RIS = (Emax × Cmax,ub)/(EC50 + Cmax,ub); for EC50: human, nominal concentrations; for RIS Based on mRNA, Mean: mean of lots 2B, 3A, 3B; for RIS values based on CYP3A4 mRNA level (range stated for group of compounds): range over named compounds and three lots
Protocol: (§1) Cryopreserved HepatoCells were thawed quickly in a 37°C water bath and transferred to Corning Culture Medium for HepatoCells supplemented with 10% fetal bovine serum and Pen/Strep (plating medium). After the cryo-freezing media was removed by centrifugation at 150g for 10 minutes, the cell pellet was resuspended in plating media and cell count was performed with trypan blue. Cells were then seeded in a Corning BioCoat Collagen I–coated plate (500,000 cells/well in 24-well plate or 80,000 cells/well in 96-well plate), and plates were incubated in a 37°C incubator with 5% CO2. […] Cells were then returned to the incubator for overnight culture.
(§2) Stock solutions of test compounds were prepared by dissolving each compound in DMSO and serially diluting the solutions in DMSO. Final working solutions were freshly prepared daily by diluting the 1000× stock solutions in culture medium. Three lots of HepatoCells culture were treated with eight concentrations of test compounds. Both enzymatic activity (testosterone 6β hydroxylase activity) and mRNA expression were measured as endpoints using LC-MS/MS and real-time reverse-transcription polymerase chain reaction, respectively.
(§3) Only curve fitting with correlation coefficient (R^2) > 0.85 is accepted. At high concentrations for some compounds, if toxicity or insolubility becomes obvious, such data are excluded from curve fitting.

[3] = test system: CYP3A4; conditions: cited from earlier work
[4] = test system: CYP3A4; conditions: for Predicted AUC change using HepatoCells (range of lots): three lots, mRNA or activity basis not given
Source text: The resulting fitting equation was used to calculate predicted in vivo AUC change for each compound. […] Prediction accuracy using HepatoCells was also compared with prediction accuracy using primary human hepatocytes.

[5] = test system: CYP3A4 mRNA
Protocol: as §1, §2, §3

[6] = test system: CYP1A2; assay: CYP1A2 induction response to prototypical inducer, enzyme activity, primary human hepatocytes; conditions: cryopreserved primary human hepatocytes, probe phenacetin 100 µM
[7] = test system: CYP1A2; assay: CYP1A2 induction response to prototypical inducer, enzyme activity, HepatoCells; conditions: human, probe phenacetin 100 µM
Protocol: as §1

[8] = molecular target: T1, MRP2 (Homo sapiens, UniProt Q92887); assay: CDFDA staining of bile canaliculi in HepatoCells sandwich culture; type: cell-based; conditions: pretreatment with inhibitor
T1 construct: the functional efflux transporter MRP2 is expressed and localized at the apical surface of HepatoCells; host or cells: Corning HepatoCells, collagen/Matrigel sandwich culture
Protocol: On day 1, HepatoCells were plated on collagen-coated dishes. Four to six hours after seeding, cell monolayer was overlaid with Matrigel solution at 0.25 mg/mL (as described above). Daily medium change was performed from day 2 to day 4 using fresh Corning Culture Medium for HepatoCells. On day 5, the sandwich cultures were incubated with carboxy-dichlorofluorescein diacetate (CDFDA), a multidrug-resistant protein 2 (MRP2) substrate that is metabolized by cytosolic esterases. The fluorescent CDFDA metabolite accumulated in bile canalicular lumens was visualized using fluorescence microscopy.

[9] = three lots of HepatoCells, eight concentrations
[10] = clinical DDI, decrease in AUC of victim drug (midazolam or nonmidazolam), ref Zhang et al., 2014
[11] = Lot 2B HepatoCells, RIS calibration curve
[12] = Lot 3A HepatoCells, RIS calibration curve
[13] = Lot 3B HepatoCells, RIS calibration curve

T1 sequence (Q92887 whole entry): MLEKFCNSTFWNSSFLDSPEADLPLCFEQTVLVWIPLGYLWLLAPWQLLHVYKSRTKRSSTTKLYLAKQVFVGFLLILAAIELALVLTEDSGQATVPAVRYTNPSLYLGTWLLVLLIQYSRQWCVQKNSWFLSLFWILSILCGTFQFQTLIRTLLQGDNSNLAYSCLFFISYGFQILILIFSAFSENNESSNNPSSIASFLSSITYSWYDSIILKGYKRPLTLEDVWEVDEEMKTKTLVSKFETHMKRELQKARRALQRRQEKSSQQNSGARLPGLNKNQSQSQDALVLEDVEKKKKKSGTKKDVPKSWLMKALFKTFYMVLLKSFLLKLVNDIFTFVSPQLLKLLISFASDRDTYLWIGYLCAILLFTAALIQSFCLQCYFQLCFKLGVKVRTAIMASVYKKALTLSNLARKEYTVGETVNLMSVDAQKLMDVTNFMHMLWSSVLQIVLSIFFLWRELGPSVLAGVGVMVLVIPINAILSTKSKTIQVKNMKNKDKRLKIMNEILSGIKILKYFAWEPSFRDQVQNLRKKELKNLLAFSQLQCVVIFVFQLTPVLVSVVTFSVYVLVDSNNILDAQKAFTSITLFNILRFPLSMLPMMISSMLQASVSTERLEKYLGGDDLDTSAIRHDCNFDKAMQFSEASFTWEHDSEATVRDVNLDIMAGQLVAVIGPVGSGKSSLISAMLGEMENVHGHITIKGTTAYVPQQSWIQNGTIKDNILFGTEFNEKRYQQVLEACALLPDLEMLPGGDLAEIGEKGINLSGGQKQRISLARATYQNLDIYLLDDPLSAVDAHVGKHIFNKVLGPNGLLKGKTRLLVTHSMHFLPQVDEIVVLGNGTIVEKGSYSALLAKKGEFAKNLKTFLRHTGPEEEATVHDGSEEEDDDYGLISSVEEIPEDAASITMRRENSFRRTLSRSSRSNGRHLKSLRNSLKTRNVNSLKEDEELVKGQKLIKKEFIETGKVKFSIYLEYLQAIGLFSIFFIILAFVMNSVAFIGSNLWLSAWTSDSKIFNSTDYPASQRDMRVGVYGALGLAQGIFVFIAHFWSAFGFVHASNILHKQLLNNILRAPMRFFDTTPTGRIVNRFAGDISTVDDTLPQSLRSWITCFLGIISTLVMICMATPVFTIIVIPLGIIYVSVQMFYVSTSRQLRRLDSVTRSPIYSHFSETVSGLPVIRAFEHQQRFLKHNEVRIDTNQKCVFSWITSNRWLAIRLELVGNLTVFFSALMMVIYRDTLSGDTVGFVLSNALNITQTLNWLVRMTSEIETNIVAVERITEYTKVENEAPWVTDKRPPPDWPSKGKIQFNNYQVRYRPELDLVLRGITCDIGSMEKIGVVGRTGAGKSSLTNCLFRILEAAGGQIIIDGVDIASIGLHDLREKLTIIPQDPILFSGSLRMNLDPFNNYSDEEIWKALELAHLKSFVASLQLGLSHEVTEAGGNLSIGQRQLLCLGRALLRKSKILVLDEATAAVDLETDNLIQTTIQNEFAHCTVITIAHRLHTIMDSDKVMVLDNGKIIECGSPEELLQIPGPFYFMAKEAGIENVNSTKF

| SMILES | CYP3A4 enzyme activity induction response (in words) [1, 9] | CYP3A4 mRNA expression induction response (in words) [2] | RIS Based on Enzyme Activity ([1]; Lot 2B) | RIS Based on Enzyme Activity ([1]; Lot 3A) | RIS Based on Enzyme Activity ([1]; Lot 3B) | RIS Based on Enzyme Activity, Mean ([1]; mean of lots 2B, 3A, 3B) | RIS values based on enzyme activity (range stated for group of compounds) [1] | Emax ([2]; Lot 2B HepatoCells) | RIS Based on mRNA ([2]; Lot 2B) | Emax ([2]; Lot 3A HepatoCells) | RIS Based on mRNA ([2]; Lot 3A) | Emax ([2]; Lot 3B HepatoCells) | RIS Based on mRNA ([2]; Lot 3B) | EC50 ([2]; EC50, Lot 2B HepatoCells) | EC50 ([2]; EC50, Lot 3A HepatoCells) | EC50 ([2]; EC50, Lot 3B HepatoCells) | RIS Based on mRNA, Mean [2] | RIS values based on CYP3A4 mRNA level (range stated for group of compounds) [2] | Predicted % AUC Change Based on Activity [4, 11] | Observed % AUC Change [3, 10] | also measured |
| --- | --- | --- | --- | --- | --- | --- | --- | --- | --- | --- | --- | --- | --- | --- | --- | --- | --- | --- | --- | --- | --- |
| C[C@H]1O[C@@H](O[C@H]2[C@@H](O)C[C@H](O[C@H]3[C@@H](O)C[C@H](O[C@H]4CC[C@@]5(C)[C@H](CC[C@@H]6[C@@H]5C[C@@H](O)[C@]5(C)[C@@H](C7=CC(=O)OC7)CC[C@]65O)C4)O[C@@H]3C)O[C@@H]2C)C[C@H](O)[C@@H]1O [Digoxin] | no induction response | no induction response | – | – | – | – | – | – | – | – | – | – | – | – | – | – | – | – | – | – | – |
| CCOC(=O)c1ncn2c1CN(C)C(=O)c1cc(F)ccc1-2 [Flumazenil] | no induction response | no induction response | – | – | – | – | – | – | – | – | – | – | – | – | – | – | – | – | – | – | – |
| C=C[C@H]1C[N@@]2CC[C@H]1C[C@@H]2[C@@H](O)c1ccnc2ccc(OC)cc12 [Quinidine] | – | – | – | – | – | – | – | – | – | – | – | – | – | – | – | – | – | – | – | – | CYP3A4 mRNA induction over solvent vehicle control [5]: one- to twofold increase; CYP3A4 enzyme activity induction over solvent vehicle control [1]: one- to twofold increase; CYP3A4 enzyme activity induction response (in words) [1]: did not cause a concentration-dependent increase |
| CN(C/C=C/C#CC(C)(C)C)Cc1cccc2ccccc12 [Terbinafine] | – | – | – | – | – | – | – | 20 Fold | – | 24 Fold | – | 21 Fold | – | – | – | – | – | – | – | – | RIS Based on mRNA, Mean ([5]; human): 0.19; RIS Based on Enzyme Activity, Mean ([1]; human): 0.2; Observed % AUC Change ([3]; human, in vivo): 25%; Predicted % AUC Change Based on Activity [4]: 29% and 15%; Predicted AUC change using enzyme activity data (range of lots) [4]: 15–29%; Predicted AUC change using mRNA data (range of lots) [4]: 8–19% |
| COc1ccc2[nH]c([S+]([O-])Cc3ncc(C)c(OC)c3C)nc2c1 (stereo not shown) [Omeprazole] | – | – | 0.015 | 0.009 | 0.007 | 0.0103 | 0.0004–0.09 | 24 Fold | 0.069 | 45 Fold | 0.073 | 27 Fold | 0.079 | 13 µM | 23 µM | 13 µM | 0.074 | 0.0012–0.16 | 0.11% | −25% | fold induction at 72 h, 50 µM [6]: 28.7; fold induction at 72 h, 50 µM [7]: 32.4; Predicted % AUC Change Based on mRNA [4, 11]: 1.7%; Predicted % AUC Change Based on Activity [4, 12]: 0.002%; Predicted % AUC Change Based on mRNA [4, 12]: 0.14%; Predicted % AUC Change Based on Activity [4, 13]: 0.017%; Predicted % AUC Change Based on mRNA [4, 13]: 0.35%; Predicted AUC change using HepatoCells (range of lots) [4]: 0.1–1.7% |
| CN(C)C(=O)CCSC(SCCC(=O)O)c1cccc(/C=C/c2ccc3ccc(Cl)cc3n2)c1 (stereo not shown) [MK571] | – | – | – | – | – | – | – | – | – | – | – | – | – | – | – | – | – | – | – | – | effect on CDFDA staining of bile canaliculi [8]: inhibited the specific CDFDA staining of bile canaliculi |
| CN(Cc1cnc2nc(N)nc(N)c2n1)c1ccc(C(=O)N[C@@H](CCC(=O)O)C(=O)O)cc1 [Methotrexate] | no induction response | no induction response | – | – | – | – | – | – | – | – | – | – | – | – | – | – | – | – | – | – | – |

Continued, in another order:

| CYP3A4 enzyme activity induction response (in words) [1, 9] | CYP3A4 mRNA expression induction response (in words) [2] | RIS Based on Enzyme Activity ([1]; Lot 2B) | RIS Based on Enzyme Activity ([1]; Lot 3A) | RIS Based on Enzyme Activity ([1]; Lot 3B) | RIS Based on Enzyme Activity, Mean ([1]; mean of lots 2B, 3A, 3B) | RIS values based on enzyme activity (range stated for group of compounds) [1] | Emax ([2]; Lot 2B HepatoCells) | RIS Based on mRNA ([2]; Lot 2B) | Emax ([2]; Lot 3A HepatoCells) | RIS Based on mRNA ([2]; Lot 3A) | Emax ([2]; Lot 3B HepatoCells) | RIS Based on mRNA ([2]; Lot 3B) | EC50 ([2]; EC50, Lot 2B HepatoCells) | EC50 ([2]; EC50, Lot 3A HepatoCells) | EC50 ([2]; EC50, Lot 3B HepatoCells) | RIS Based on mRNA, Mean [2] | RIS values based on CYP3A4 mRNA level (range stated for group of compounds) [2] | Predicted % AUC Change Based on Activity [4, 11] | SMILES | Observed % AUC Change [3, 10] | also measured |
| --- | --- | --- | --- | --- | --- | --- | --- | --- | --- | --- | --- | --- | --- | --- | --- | --- | --- | --- | --- | --- | --- |
| – | – | 1.8 | 2.3 | 2.4 | 2.2 | 0.7–24 | 23 Fold | 7.5 | 38 Fold | 12.1 | 35 Fold | 8.5 | 15 µM | 16 µM | 23 µM | 9.4 | 0.8–25 | 96% | O=C1NC(=O)C(c2ccccc2)(c2ccccc2)N1 [Phenytoin] | 94% | Predicted % AUC Change Based on mRNA [4, 11]: 98%; Predicted % AUC Change Based on Activity [4, 12]: 96%; Predicted % AUC Change Based on mRNA [4, 12]: 98%; Predicted % AUC Change Based on Activity [4, 13]: 97%; Predicted % AUC Change Based on mRNA [4, 13]: 95%; Predicted AUC change using HepatoCells (range of lots) [4]: 95–98% |
| – | – | 1.5 | 1.4 | 1.2 | 1.3 | – | 31 Fold | 1.2 | 53 Fold | 1.8 | 38 Fold | 1.1 | 23 µM | 28 µM | 32 µM | 1.4 | – | – | O=C1C(CC[S+]([O-])c2ccccc2)C(=O)N(c2ccccc2)N1c1ccccc1 (stereo not shown) [Sulfinpyrazone] | – | – |
| – | – | 0.67 | 0.8 | 0.9 | 0.8 | 0.7–24 | 16 Fold | 0.76 | 10 Fold | 0.77 | 14 Fold | 1.3 | 108 µM | 65 µM | 53 µM | 0.9 | 0.8–25 | 92% | NC(=O)N1c2ccccc2C=Cc2ccccc21 [Carbamazepine] | 94% | Predicted % AUC Change Based on mRNA [4, 11]: 86%; Predicted % AUC Change Based on Activity [4, 12]: 92%; Predicted % AUC Change Based on mRNA [4, 12]: 87%; Predicted % AUC Change Based on Activity [4, 13]: 87%; Predicted % AUC Change Based on mRNA [4, 13]: 95% |
